# Test results as given in patent publication US12479840B2, “HMG-CoA reductase degradation inducing compound” (Uppthera, priority 2020, dated 2025).
# Molecular target: T1, HMG-CoA reductase (Homo sapiens, UniProt P04035)
# T1 construct: endogenous in cells; host or cells: HepG2 (Korea Cell Line Bank)
# T1 sequence (P04035 1-888): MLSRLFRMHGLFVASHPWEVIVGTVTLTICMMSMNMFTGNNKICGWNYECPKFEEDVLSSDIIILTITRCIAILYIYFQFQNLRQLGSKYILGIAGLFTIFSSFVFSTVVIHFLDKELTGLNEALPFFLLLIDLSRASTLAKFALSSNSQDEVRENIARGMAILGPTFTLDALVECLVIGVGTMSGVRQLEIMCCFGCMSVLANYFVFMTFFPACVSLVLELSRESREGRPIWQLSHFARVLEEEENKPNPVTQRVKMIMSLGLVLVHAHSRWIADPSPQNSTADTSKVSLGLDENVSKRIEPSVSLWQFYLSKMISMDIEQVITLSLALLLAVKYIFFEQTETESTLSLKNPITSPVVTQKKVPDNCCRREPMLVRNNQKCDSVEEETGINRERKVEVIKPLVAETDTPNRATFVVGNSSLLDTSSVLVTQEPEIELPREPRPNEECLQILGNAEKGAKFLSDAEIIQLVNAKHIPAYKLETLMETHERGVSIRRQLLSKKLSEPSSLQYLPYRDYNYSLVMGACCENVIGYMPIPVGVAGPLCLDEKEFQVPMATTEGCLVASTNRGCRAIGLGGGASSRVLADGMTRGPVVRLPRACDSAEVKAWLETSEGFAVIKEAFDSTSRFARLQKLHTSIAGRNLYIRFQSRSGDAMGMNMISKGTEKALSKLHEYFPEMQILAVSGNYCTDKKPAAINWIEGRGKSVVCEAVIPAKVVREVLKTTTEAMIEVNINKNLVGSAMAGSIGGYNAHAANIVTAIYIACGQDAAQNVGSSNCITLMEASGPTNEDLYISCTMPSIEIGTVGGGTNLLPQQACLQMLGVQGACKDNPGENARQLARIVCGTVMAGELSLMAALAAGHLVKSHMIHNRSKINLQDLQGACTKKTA
# Experiment: HMG-CoA reductase (HMGCR) degradation in HepG2 cells by western blotting
# Assay type: cell-based
# Settings: treated for 18 hours, ratio of HMG-CoA reductase to GAPDH, read-out: DC50
# Summary of the method: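 HepG2 cells (passage P105–P110) treated 18 hours with compounds in 10-point three-fold dilutions from 3 μM. RIPA lysates (15 μg protein, BCA-quantified) run on SDS-PAGE and immunoblotted for HMGCR (1:500) with GAPDH (1:20000) as loading control, primary antibodies 16 hours at 4° C.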
row,SMILES,DC50 [µM]
1,"CO[C@H]1CC(=O)O[C@H](CC[C@@H]2[C@@H]3C(=C[C@H](C)C[C@@H]3OC(=O)NCCOCCOCCNc3cccc4c3C(=O)N(C3CCC(=O)NC3=O)C4=O)C=C[C@@H]2C)C1 (stereo partly drawn) [Compound 69, (1S,3R,7S,8S,8aR)-8-(2-((2R,4R)-4-methoxy-6-oxotetrahydro-2H-pyran-2-yl)ethyl)-3,7-dimethyl-1,2,3,7,8,8a-hexahydronaphthalen-1-yl (2-(2-(2-((2-(2,6-dioxopiperidin-3-yl)-1,3-dioxoisoindolin-4-yl)amino)ethoxy)ethoxy)ethyl)carbamate]",< 0.05
2,"CC(C)[Si](O[C@H]1CC(=O)O[C@H](CC[C@@H]2[C@@H]3C(=C[C@H](C)C[C@@H]3OC(=O)NCCOCCOCCNc3cccc4c3C(=O)N(C3CCC(=O)NC3=O)C4=O)C=C[C@@H]2C)C1)(C(C)C)C(C)C (stereo partly drawn) [Compound 70, (1S,3R,7S,8S,8aR)-3,7-dimethyl-8-(2-((2R,4R)-6-oxo-4-((triisopropylsilyl)oxy)tetrahydro-2H-pyran-2-yl)ethyl)-1,2,3,7,8,8a-hexahydronaphthalen-1-yl (2-(2-(2-((2-(2,6-dioxopiperidin-3-yl)-1,3-dioxoisoindolin-4-yl)amino)ethoxy)ethoxy)ethyl)carbamate]",< 0.05
3,"C[C@H]1C=C2C=C[C@H](C)[C@H](CC[C@@H]3C[C@@H](O[Si](c4ccccc4)(c4ccccc4)C(C)(C)C)CC(=O)O3)[C@H]2[C@@H](OC(=O)NCCOCCOCCNc2cccc3c2C(=O)N(C2CCC(=O)NC2=O)C3=O)C1 (stereo partly drawn) [Compound 71, (1S,3R,7S,8S,8aR)-8-(2-((2R,4R)-4-((tert-butyldiphenylsilyl)oxy)-6-oxotetrahydro-2H-pyran-2-yl)ethyl)-3,7-dimethyl-1,2,3,7,8,8a-hexahydronaphthalen-1-yl (2-(2-(2-((2-(2,6-dioxopiperidin-3-yl)-1,3-dioxoisoindolin-4-yl)amino)ethoxy)ethoxy)ethyl)carbamate]",< 0.05
4,"C[C@H]1C=C2C=C[C@H](C)[C@H](CC[C@@H]3C[C@@H](O[Si](C)(C)C(C)(C)C)CC(=O)O3)[C@H]2[C@@H](OC(=O)NCCCCN2CCC(Nc3cccc4c3C(=O)N(C3CCC(=O)NC3=O)C4=O)CC2)C1 (stereo partly drawn) [Compound 72, (1S,3R,7S,8S,8aR)-8-(2-((2R,4R)-4-((tert-butyldimethylsilyl)oxy)-6-oxotetrahydro-2H-pyran-2-yl)ethyl)-3,7-dimethyl-1,2,3,7,8,8a-hexahydronaphthalen-1-yl (4-(4-((2-(2,6-dioxopiperidin-3-yl)-1,3-dioxoisoindolin-4-yl)amino)piperidin-1-yl)butyl)carbamate]",< 0.05
5,"C[C@H]1C=C2C=C[C@H](C)[C@H](CC[C@@H]3C[C@@H](O)CC(=O)O3)[C@H]2[C@@H](OC(=O)NCCCCN2CCC(Nc3cccc4c3C(=O)N(C3CCC(=O)NC3=O)C4=O)CC2)C1 (stereo partly drawn) [Compound 73, (1S,3R,7S,8S,8aR)-8-(2-((2R,4R)-4-hydroxy-6-oxotetrahydro-2H-pyran-2-yl)ethyl)-3,7-dimethyl-1,2,3,7,8,8a-hexahydronaphthalen-1-yl (4-(4-((2-(2,6-dioxopiperidin-3-yl)-1,3-dioxoisoindolin-4-yl)amino)piperidin-1-yl)butyl)carbamate]",< 0.05
6,"C[C@H]1C=C2C=C[C@H](C)[C@H](CC[C@@H]3C[C@@H](O[Si](C)(C)C(C)(C)C)CC(=O)O3)[C@H]2[C@@H](OC(=O)NCCCCCNC(=O)COc2cccc3c2C(=O)N(C2CCC(=O)NC2=O)C3=O)C1 (stereo partly drawn) [Compound 74, (1S,3R,7S,8S,8aR)-8-(2-((2R,4R)-4-((tert-butyldimethylsilyl)oxy)-6-oxotetrahydro-2H-pyran-2-yl)ethyl)-3,7-dimethyl-1,2,3,7,8,8a-hexahydronaphthalen-1-yl (5-(2-((2-(2,6-dioxopiperidin-3-yl)-1,3-dioxoisoindolin-4-yl)oxy)acetamido)pentyl)carbamate]",< 0.05
7,"C[C@H]1C=C2C=C[C@H](C)[C@H](CC[C@@H]3C[C@@H](O)CC(=O)O3)[C@H]2[C@@H](OC(=O)NCCCCCNC(=O)COc2cccc3c2C(=O)N(C2CCC(=O)NC2=O)C3=O)C1 (stereo partly drawn) [Compound 75, (1S,3R,7S,8S,8aR)-8-(2-((2R,4R)-4-hydroxy-6-oxotetrahydro-2H-pyran-2-yl)ethyl)-3,7-dimethyl-1,2,3,7,8,8a-hexahydronaphthalen-1-yl (5-(2-((2-(2,6-dioxopiperidin-3-yl)-1,3-dioxoisoindolin-4-yl)oxy)acetamido)pentyl)carbamate]",< 0.05
8,"C[C@H]1C=C2C=C[C@H](C)[C@H](CC[C@@H]3C[C@@H](O[Si](C)(C)C(C)(C)C)CC(=O)O3)[C@H]2[C@@H](OC(=O)NCCCCCCCC(=O)Nc2cccc3c2C(=O)N(C2CCC(=O)NC2=O)C3=O)C1 (stereo partly drawn) [Compound 76, (1S,3R,7S,8S,8aR)-8-(2-((2R,4R)-4-((tert-butyldimethylsilyl)oxy)-6-oxotetrahydro-2H-pyran-2-yl)ethyl)-3,7-dimethyl-1,2,3,7,8,8a-hexahydronaphthalen-1-yl (8-((2-(2,6-dioxopiperidin-3-yl)-1,3-dioxoisoindolin-4-yl)amino)-8-oxooctyl)carbamate]",< 0.05
9,"C[C@H]1C=C2C=C[C@H](C)[C@H](CC[C@@H]3C[C@@H](O)CC(=O)O3)[C@H]2[C@@H](OC(=O)NCCCCCCCC(=O)Nc2cccc3c2C(=O)N(C2CCC(=O)NC2=O)C3=O)C1 (stereo partly drawn) [Compound 77, (1S,3R,7S,8S,8aR)-8-(2-((2R,4R)-4-hydroxy-6-oxotetrahydro-2H-pyran-2-yl)ethyl)-3,7-dimethyl-1,2,3,7,8,8a-hexahydronaphthalen-1-yl (8-((2-(2,6-dioxopiperidin-3-yl)-1,3-dioxoisoindolin-4-yl)amino)-8-oxooctyl)carbamate]",< 0.05
10,"C[C@H]1C=C2C=C[C@H](C)[C@H](CC[C@@H]3C[C@@H](O[Si](C)(C)C(C)(C)C)CC(=O)O3)[C@H]2[C@@H](OC(=O)NCc2cccc(CNC(=O)COc3cccc4c3C(=O)N(C3CCC(=O)NC3=O)C4=O)c2)C1 (stereo partly drawn) [Compound 78, (1S,3R,7S,8S,8aR)-8-(2-((2R,4R)-4-((tert-butyldimethylsilyl)oxy)-6-oxotetrahydro-2H-pyran-2-yl)ethyl)-3,7-dimethyl-1,2,3,7,8,8a-hexahydronaphthalen-1-yl (3-((2-((2-(2,6-dioxopiperidin-3-yl)-1,3-dioxoisoindolin-4-yl)oxy)acetamido)methyl)benzyl)carbamate]",< 0.05
11,"C[C@H]1C=C2C=C[C@H](C)[C@H](CC[C@@H]3C[C@@H](O)CC(=O)O3)[C@H]2[C@@H](OC(=O)NCc2cccc(CNC(=O)COc3cccc4c3C(=O)N(C3CCC(=O)NC3=O)C4=O)c2)C1 (stereo partly drawn) [Compound 79, (1S,3R,7S,8S,8aR)-8-(2-((2R,4R)-4-hydroxy-6-oxotetrahydro-2H-pyran-2-yl)ethyl)-3,7-dimethyl-1,2,3,7,8,8a-hexahydronaphthalen-1-yl (3-((2-((2-(2,6-dioxopiperidin-3-yl)-1,3-dioxoisoindolin-4-yl)oxy)acetamido)methyl)benzyl)carbamate]",< 0.05
12,"C[C@H]1C=C2C=C[C@H](C)[C@H](CC[C@@H]3C[C@@H](O[Si](C)(C)C(C)(C)C)CC(=O)O3)[C@H]2[C@@H](OC(=O)NCCC2CCN(C(=O)COc3cccc4c3C(=O)N(C3CCC(=O)NC3=O)C4=O)CC2)C1 (stereo partly drawn) [Compound 80, (1S,3R,7S,8S,8aR)-8-(2-((2R,4R)-4-((tert-butyldimethylsilyl)oxy)-6-oxotetrahydro-2H-pyran-2-yl)ethyl)-3,7-dimethyl-1,2,3,7,8,8a-hexahydronaphthalen-1-yl (2-(1-(2-((2-(2,6-dioxopiperidin-3-yl)-1,3-dioxoisoindolin-4-yl)oxy)acetyl)piperidin-4-yl)ethyl)carbamate]",< 0.05
13,"C[C@H]1C=C2C=C[C@H](C)[C@H](CC[C@@H]3C[C@@H](O)CC(=O)O3)[C@H]2[C@@H](OC(=O)NCCC2CCN(C(=O)COc3cccc4c3C(=O)N(C3CCC(=O)NC3=O)C4=O)CC2)C1 (stereo partly drawn) [Compound 81, (1S,3R,7S,8S,8aR)-8-(2-((2R,4R)-4-hydroxy-6-oxotetrahydro-2H-pyran-2-yl)ethyl)-3,7-dimethyl-1,2,3,7,8,8a-hexahydronaphthalen-1-yl (2-(1-(2-((2-(2,6-dioxopiperidin-3-yl)-1,3-dioxoisoindolin-4-yl)oxy)acetyl)piperidin-4-yl)ethyl)carbamate]",< 0.05
